Assay results: article PMC11242640 (International Journal of Molecular Sciences, 2024)

Target: eeAChE (Electrophorus electricus, UniProt O42275)
Assay: eeAChE inhibition, modified Ellman's method
Assay type: biochemical
Settings: dash = IC50 value not achieved
Protocol: (§1) Enzymes were prepared in 20 mM Tris buffer pH 7.5 and DTNB, ATChI, and BTChI in 50 mM Tris buffer pH 8.0. Cholinesterase activity was evaluated using a 96-well microplate reader (Bio Tek 800TSUV Absorbance Reader, Agilent, Santa Clara, CA, USA) at room temperature. The microplate well was filled with 180 μL of Tris buffer (50 mM, pH 8.0), 10 μL of tested solutions (final concentrations in a range of 20–1000 μM), 10 μL of an enzyme (final concentration 0.04 U/mL), 10 μL of DTNB (final concentration 0.3 mM), and […] of ATChI/BTChI (final concentration of 0.5 mM). […] Without the use of inhibitors and enzymes, non-enzymatic hydrolysis was evaluated as a blank for the control measurement. The non-enzymatic hydrolysis reaction with an added inhibitor was used as a blank for the samples. The same volume of buffer was substituted for the enzyme. All experiments were run in triplicate. The following formula was applied to calculate the inhibition percentage: Inhibition (%) = [(AC − AT)/AC] × 100, where AC is the activity of the enzyme without a test sample and AT is the activity of the enzyme with a test sample. […] The inhibitory activity of ethanol was subtracted from all the samples. The IC50 values were obtained by a nonlinear fit of compound concentration values versus the response.

Sequence of eeAChE (O42275 24-633): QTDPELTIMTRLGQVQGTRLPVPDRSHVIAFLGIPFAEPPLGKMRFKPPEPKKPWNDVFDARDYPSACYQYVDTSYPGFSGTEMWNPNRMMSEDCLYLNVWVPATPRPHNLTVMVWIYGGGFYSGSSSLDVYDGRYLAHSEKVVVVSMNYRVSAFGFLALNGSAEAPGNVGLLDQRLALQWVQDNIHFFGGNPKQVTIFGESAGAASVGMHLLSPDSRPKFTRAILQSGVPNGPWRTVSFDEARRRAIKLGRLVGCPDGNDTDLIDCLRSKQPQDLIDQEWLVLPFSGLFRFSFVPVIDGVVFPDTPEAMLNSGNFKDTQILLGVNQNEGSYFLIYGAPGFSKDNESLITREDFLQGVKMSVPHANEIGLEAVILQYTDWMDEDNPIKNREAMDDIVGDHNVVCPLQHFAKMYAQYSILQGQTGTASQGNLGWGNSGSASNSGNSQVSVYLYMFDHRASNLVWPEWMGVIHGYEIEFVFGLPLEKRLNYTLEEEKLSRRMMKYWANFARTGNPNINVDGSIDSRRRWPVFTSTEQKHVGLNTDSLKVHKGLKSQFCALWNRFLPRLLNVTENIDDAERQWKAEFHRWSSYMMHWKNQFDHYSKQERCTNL

SMILES	IC50
Cc1ccc(/C=C/c2cc(F)ccc2O)s1 [Compound 5, (E)-4-fluoro-2-(2-(5-methylthiophen-2-yl)vinyl)phenol]	155 µM
Cc1cnc(/C=C\c2cc(F)ccc2O)s1 [Compound 9, (Z)-4-fluoro-2-(2-(5-methylthiazol-2-yl)vinyl)phenol]	> 100 µM
Cc1cnc(/C=C\c2cc(Cl)ccc2O)s1 [Compound 10, (Z)-4-chloro-2-(2-(5-methylthiazol-2-yl)vinyl)phenol]	> 100 µM
COc1ccc(/C=C/c2ncc(C)s2)c(O)c1 [Compound 11, (E)-5-methoxy-2-(2-(5-methylthiazol-2-yl)vinyl)phenol]	> 100 µM
Cc1cnc(/C=C/c2ccc(O)cc2)s1 [Compound 12, (E)-4-(2-(5-methylthiazol-2-yl)vinyl)phenol]	> 100 µM
Cc1cnc(/C=C/c2ccccc2O)s1 [Compound 13, (E)-2-(2-(5-methylthiazol-2-yl)vinyl)phenol]	> 100 µM
Cc1cnc(/C=C/c2cccc(O)c2)s1 [Compound 14, (E)-3-(2-(5-methylthiazol-2-yl)vinyl)phenol]	> 100 µM

Same assay, conditions: read-out: eeAChE Inhibition (%)

SMILES	inhibition at 250 µM	inhibition at 100 µM	inhibition at 500 µM
Cc1ccc(/C=C/c2cc(F)ccc2O)s1 [Compound 5, (E)-4-fluoro-2-(2-(5-methylthiophen-2-yl)vinyl)phenol]	84.6 ± 2.7%	–	–
Cc1cnc(/C=C\c2cc(F)ccc2O)s1 [Compound 9, (Z)-4-fluoro-2-(2-(5-methylthiazol-2-yl)vinyl)phenol]	–	17.6 ± 3.1%	–
Cc1cnc(/C=C\c2cc(Cl)ccc2O)s1 [Compound 10, (Z)-4-chloro-2-(2-(5-methylthiazol-2-yl)vinyl)phenol]	–	–	34.2 ± 2.1%
COc1ccc(/C=C/c2ncc(C)s2)c(O)c1 [Compound 11, (E)-5-methoxy-2-(2-(5-methylthiazol-2-yl)vinyl)phenol]	–	–	29.3 ± 1.8%
Cc1cnc(/C=C/c2ccc(O)cc2)s1 [Compound 12, (E)-4-(2-(5-methylthiazol-2-yl)vinyl)phenol]	–	–	9.1 ± 1.4%
Cc1cnc(/C=C/c2ccccc2O)s1 [Compound 13, (E)-2-(2-(5-methylthiazol-2-yl)vinyl)phenol]	–	–	17.1 ± 3.9%
Cc1cnc(/C=C/c2cccc(O)c2)s1 [Compound 14, (E)-3-(2-(5-methylthiazol-2-yl)vinyl)phenol]	10.7 ± 2.4%	–	–

Target: T1, eqBChE (Equus caballus, UniProt P81908)
T1 construct: eqBChE (from equine serum); purchased Sigma–Aldrich (St. Louis, MO, USA); host or cells: equine serum
Assay: eqBChE inhibition, modified Ellman's method
Assay type: biochemical
Settings: concentration not given
Protocol: as §1

T1 sequence (P81908 whole entry): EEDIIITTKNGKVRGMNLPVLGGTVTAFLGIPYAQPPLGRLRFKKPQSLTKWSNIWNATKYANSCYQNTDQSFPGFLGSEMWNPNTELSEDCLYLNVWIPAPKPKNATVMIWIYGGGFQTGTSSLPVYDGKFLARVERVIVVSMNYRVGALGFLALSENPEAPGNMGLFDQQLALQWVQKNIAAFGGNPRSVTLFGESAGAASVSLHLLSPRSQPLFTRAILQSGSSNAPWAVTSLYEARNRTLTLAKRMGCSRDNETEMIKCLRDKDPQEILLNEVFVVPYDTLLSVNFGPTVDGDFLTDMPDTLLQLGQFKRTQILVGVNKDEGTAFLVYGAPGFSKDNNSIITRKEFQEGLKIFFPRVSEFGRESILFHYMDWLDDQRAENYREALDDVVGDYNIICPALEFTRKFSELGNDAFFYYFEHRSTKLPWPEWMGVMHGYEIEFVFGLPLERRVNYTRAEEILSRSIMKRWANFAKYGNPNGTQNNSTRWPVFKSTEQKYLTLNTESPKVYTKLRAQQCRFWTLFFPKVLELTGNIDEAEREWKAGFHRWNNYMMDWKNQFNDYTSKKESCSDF

SMILES	inhibition of BChE
COc1ccc(/C=C/c2ncc(C)s2)c(O)c1 [Compound 11, (E)-5-methoxy-2-(2-(5-methylthiazol-2-yl)vinyl)phenol]	< 50%
Cc1cnc(/C=C/c2cccc(O)c2)s1 [Compound 14, (E)-3-(2-(5-methylthiazol-2-yl)vinyl)phenol]	< 50%

Same assay, conditions: dash = IC50 value not achieved

SMILES	IC50
Cc1ccc(/C=C/c2cc(F)ccc2O)s1 [Compound 5, (E)-4-fluoro-2-(2-(5-methylthiophen-2-yl)vinyl)phenol]	22.9 µM
Cc1cnc(/C=C\c2cc(F)ccc2O)s1 [Compound 9, (Z)-4-fluoro-2-(2-(5-methylthiazol-2-yl)vinyl)phenol]	> 250 µM
Cc1cnc(/C=C\c2cc(Cl)ccc2O)s1 [Compound 10, (Z)-4-chloro-2-(2-(5-methylthiazol-2-yl)vinyl)phenol]	> 250 µM
COc1ccc(/C=C/c2ncc(C)s2)c(O)c1 [Compound 11, (E)-5-methoxy-2-(2-(5-methylthiazol-2-yl)vinyl)phenol]	> 250 µM
Cc1cnc(/C=C/c2ccc(O)cc2)s1 [Compound 12, (E)-4-(2-(5-methylthiazol-2-yl)vinyl)phenol]	189 µM
Cc1cnc(/C=C/c2ccccc2O)s1 [Compound 13, (E)-2-(2-(5-methylthiazol-2-yl)vinyl)phenol]	30.7 µM
Cc1cnc(/C=C/c2cccc(O)c2)s1 [Compound 14, (E)-3-(2-(5-methylthiazol-2-yl)vinyl)phenol]	> 250 µM

Same assay, conditions: read-out: eqBChE Inhibition (%)

SMILES	inhibition at 100 µM	inhibition at 250 µM	inhibition at 500 µM
Cc1ccc(/C=C/c2cc(F)ccc2O)s1 [Compound 5, (E)-4-fluoro-2-(2-(5-methylthiophen-2-yl)vinyl)phenol]	75.3 ± 2.3%	–	–
Cc1cnc(/C=C\c2cc(F)ccc2O)s1 [Compound 9, (Z)-4-fluoro-2-(2-(5-methylthiazol-2-yl)vinyl)phenol]	–	10.5 ± 4.1%	–
Cc1cnc(/C=C\c2cc(Cl)ccc2O)s1 [Compound 10, (Z)-4-chloro-2-(2-(5-methylthiazol-2-yl)vinyl)phenol]	–	–	22.4 ± 9%
COc1ccc(/C=C/c2ncc(C)s2)c(O)c1 [Compound 11, (E)-5-methoxy-2-(2-(5-methylthiazol-2-yl)vinyl)phenol]	–	–	9.8 ± 2.7%
Cc1cnc(/C=C/c2ccc(O)cc2)s1 [Compound 12, (E)-4-(2-(5-methylthiazol-2-yl)vinyl)phenol]	–	–	68.4 ± 1.3%
Cc1cnc(/C=C/c2ccccc2O)s1 [Compound 13, (E)-2-(2-(5-methylthiazol-2-yl)vinyl)phenol]	–	–	78.2 ± 3.8%
Cc1cnc(/C=C/c2cccc(O)c2)s1 [Compound 14, (E)-3-(2-(5-methylthiazol-2-yl)vinyl)phenol]	–	15.6 ± 3.6%	–

System: not listed separately
Assay: DPPH radical scavenging activity
Settings: 30 min, 25 °C; dash = IC50 value not achieved
Source text: DPPH is the most commonly used method to determine the antioxidant activity of different potential antioxidants. DPPH is a stable organic radical capable of accepting an electron or a hydrogen radical and changing into a non-radical form, DPPH-H [50]. The percentage of radical quenching is used as a measure of the compound antioxidant capacity.
DPPH radical scavenging activity. The stable radical 1,1-diphenyl-2-picrylhydrazyl (DPPH, Sigma–Aldrich, St. Louis, MO, USA) is the reagent used in this spectrophotometric test. The DPPH ethanolic solution (c = 8⋅10^−4 mol/L) was prepared daily and stored in a dark flask at 4 °C between the measurements. […] The reaction mixture was vortexed and incubated in the dark for 30 min at 25 °C. […] Antioxidant substances reduce the DPPH radical and decrease its absorbance at this wavelength. The DPPH inhibition, reported as a percentage, was obtained according to the equation: Inhibition (%) = [(AC(0) − AA(t))/AC(0)] × 100, where AC(0) is the absorbance of the control at t = 0 min and AA(t) is the absorbance of the antioxidant at t = 30 min. Each of the measurements was conducted three times. Inhibition percentages were expressed as mean values ± standard deviation. IC50 values were calculated using a nonlinear fit of compound concentration values versus the inhibition percentage.

SMILES	IC50
Cc1ccc(/C=C/c2cc(F)ccc2O)s1 [Compound 5, (E)-4-fluoro-2-(2-(5-methylthiophen-2-yl)vinyl)phenol]	130 µM
Cc1cnc(/C=C\c2cc(F)ccc2O)s1 [Compound 9, (Z)-4-fluoro-2-(2-(5-methylthiazol-2-yl)vinyl)phenol]	428 µM
Cc1cnc(/C=C\c2cc(Cl)ccc2O)s1 [Compound 10, (Z)-4-chloro-2-(2-(5-methylthiazol-2-yl)vinyl)phenol]	> 250 µM
COc1ccc(/C=C/c2ncc(C)s2)c(O)c1 [Compound 11, (E)-5-methoxy-2-(2-(5-methylthiazol-2-yl)vinyl)phenol]	30.1 µM
Cc1cnc(/C=C/c2ccc(O)cc2)s1 [Compound 12, (E)-4-(2-(5-methylthiazol-2-yl)vinyl)phenol]	140 µM
Cc1cnc(/C=C/c2ccccc2O)s1 [Compound 13, (E)-2-(2-(5-methylthiazol-2-yl)vinyl)phenol]	699 µM
Cc1cnc(/C=C/c2cccc(O)c2)s1 [Compound 14, (E)-3-(2-(5-methylthiazol-2-yl)vinyl)phenol]	> 250 µM

Same assay, conditions: at maximal concentration tested, 250 μM

SMILES	DPPH Inhibition (%)
Cc1cnc(/C=C/c2cccc(O)c2)s1 [Compound 14, (E)-3-(2-(5-methylthiazol-2-yl)vinyl)phenol]	11.2 ± 2.7 (250) %

Same assay, conditions: at maximal concentration tested, 400 μM

SMILES	DPPH Inhibition (%)
Cc1ccc(/C=C/c2cc(F)ccc2O)s1 [Compound 5, (E)-4-fluoro-2-(2-(5-methylthiophen-2-yl)vinyl)phenol]	83.0 ± 1.9 (400) %

Same assay, conditions: at maximal concentration tested, 500 μM

SMILES	DPPH Inhibition (%)
Cc1cnc(/C=C\c2cc(F)ccc2O)s1 [Compound 9, (Z)-4-fluoro-2-(2-(5-methylthiazol-2-yl)vinyl)phenol]	55.4 ± 0.7 (500) %
Cc1cnc(/C=C\c2cc(Cl)ccc2O)s1 [Compound 10, (Z)-4-chloro-2-(2-(5-methylthiazol-2-yl)vinyl)phenol]	24.0 ± 0.7 (500) %

Same assay, conditions: at maximal concentration tested, 524 μM

SMILES	DPPH Inhibition (%)
COc1ccc(/C=C/c2ncc(C)s2)c(O)c1 [Compound 11, (E)-5-methoxy-2-(2-(5-methylthiazol-2-yl)vinyl)phenol]	89.8 ± 0.0 (524) %
Cc1cnc(/C=C/c2ccc(O)cc2)s1 [Compound 12, (E)-4-(2-(5-methylthiazol-2-yl)vinyl)phenol]	74.1 ± 0.4 (524) %

Same assay, conditions: at maximal concentration tested, 1047 μM

SMILES	DPPH Inhibition (%)
Cc1cnc(/C=C/c2ccccc2O)s1 [Compound 13, (E)-2-(2-(5-methylthiazol-2-yl)vinyl)phenol]	59.8 ± 2.3 (1047) %

System: not listed separately
Assay: CUPRAC reducing antioxidant capacity assay
Settings: Trolox equivalent, pH 7.0
Source text: The CUPRAC test is based on the reduction of Cu^2+ to Cu^+ due to the action of antioxidants. A reaction occurs at a pH 7.0 (close to physiological pH) in the presence of neocuproin. The reactive Ar-OH groups of polyphenols and other antioxidants are oxidized to the corresponding quinones, and Cu^2+-neocuproin is reduced to the colored complex Cu^+-neocuproin [51].
CUPRAC-reducing-antioxidant-capacity assay. […] Ammonium acetate, neocuproine, copper(II) chloride, and standard Trolox were purchased from Sigma–Aldrich (St. Louis, MO, USA). The reaction mixture contained 1 mL of each of these solutions: NH4Ac buffer (1 M, pH 7.0), Cu(II) chloride (10 mM), and neocuproine (7.5 mM, dissolved in ethanol). To make a final volume of 4.1 mL, x mL of the testing sample (or standard Trolox) and (1,1-x) mL of H2O were added to an initial mixture. The tubes were vortexed and left for 30 min at room temperature. As a blank test, the same mixture was used only without the test sample. Absorbance was recorded at 450 nm (UV-1800 UV/Vis spectrophotometer, Shimadzu, Kyoto, Japan).

SMILES	CUPRAC
Cc1ccc(/C=C/c2cc(F)ccc2O)s1 [Compound 5, (E)-4-fluoro-2-(2-(5-methylthiophen-2-yl)vinyl)phenol]	0.204 mol TE/mol of Compound
Cc1cnc(/C=C\c2cc(F)ccc2O)s1 [Compound 9, (Z)-4-fluoro-2-(2-(5-methylthiazol-2-yl)vinyl)phenol]	1.000 mol TE/mol of Compound
Cc1cnc(/C=C\c2cc(Cl)ccc2O)s1 [Compound 10, (Z)-4-chloro-2-(2-(5-methylthiazol-2-yl)vinyl)phenol]	0.630 mol TE/mol of Compound
